Structures can show the parent of a compound that is named as a salt. Where two headings read alike, the source gives them in different places.
What was measured:
[1] = molecular target: PDK1 (Homo sapiens (Human), UniProt O15530); assay: PDK1 kinase assay (coupled PDK1/AKT/FAM-crosstide assay, IMAP fluorescence polarization); type: biochemical
Protocol: A PDK1 kinase assay was performed as follows. PDK1 (amino acids 51-359) and AKT2 (amino acids 140-467 fused to PIFtide, amino acids […]) were expressed as N-terminally tagged GST fusion proteins in insect cells and purified to homogeneity. Enzyme activity was determined in a coupled PDK1/AKT/FAM-crosstide assay and phosphorylation of FAM-crosstide was determined by standard IMAP protocol (Molecular Devices). For inhibition studies, compounds were titrated 4-fold in DMSO and diluted 40-fold into assay buffer (10 mM Tris HCl pH7.2; 10 mM MgCl2; 0.01% Triton X-100; 1 mM DTT) containing PDK1, AKT2, and FAM-crosstide (final concentrations: 0.75 nM PDK1, 10 nM unphosphorylated AKT2, and 100 nM crosstide substrate). The kinase reaction was initiated by adding ATP to a final concentration of 40 μM of PDK1 and incubated at 25° C. for 30 min. To detect assay product, the kinase reaction was combined with Progressive Binding Solution (1:600 Progressive Binding Reagent, 50% Buffer A, 50% Buffer B, Molecular Devices) in a 1:3 ratio. The mixture was incubated for 2 hours at 25° C. and the plate was scanned on an Analyst AD with excitation at 485 nm and emission at 530 nm. The fluorescence polarization value “P” is defined by the equation below. The value “mP” is generated by multiplying the P value for each reaction well by a factor of 1000. The value “ΔmP” for each well is the mP value for that well minus the mP value for the average negative control. P=(Fpar−Fperp)/(Fpar+Fperp) Eq.:
Where “par” is fluorescence intensity parallel to the excitation plane; and “perp” is fluorescence intensity perpendicular to the excitation plane. ΔmP values were plotted as a function of compound concentration and the data were analyzed with a 4-parameter fit using GraphPad Prism software.

[2] = system: phospho-akt (Thr308) in PC-3 cells; assay: Inhibition of phospho-akt (Thr308) in PC-3 cells, MSD phospho-akt 308 ELISA kit; type: cell-based; conditions: Homo sapiens, 2 hours, no serum, read-out: EC50
Protocol: PC-3 cells were harvested by trypsin and counted. Cells were plated in coated 96-well flat bottom plates (plate 15,000 cells/well in 100 ul growth media (10% FBS, 1× pen-strep) an place in an incubator overnight.
Subject inhibitors were stocked at 50 mM, then diluted to 30 mM (4.8 μl cpd plus […] DMSO) in 100% DMSO. Three-fold dilutions were performed from 30 mM stock. (4 μl into 8 ul 100% DMSO). Aliquots of 1.0 μl of inhibitor solution were transferred into SF Medium (using deep well block).
Control wells were prepared as follows. For DMSO high controls, 1.0 μl of 100% DMSO was added into 1.0 ml SF. For low controls for PC-3 cells, 5 μM of Wortmannin (10 μl of 1 mM Wortmannin stock was added into 2 ml SF Medium. The supernatant media was removed and the plate was blotted. 100 μl of controls/media or compound/media were added to cells and placed in incubator for 2 hours. The supernatant media was removed and the plate was blotted. 55 μl of the MSD complete lysis buffer was added (10 mls Tris Lysis buffer, 200 ul protease inhibitor, 100 ul phosphatase inhibitor 1, and 100 ul phosphatase inhibitor II). The plate was placed on a plate shaker for 60 mins at 4 deg.
MSD plates were blocked for 1 hour by adding 150 μl of Blocking Solution (3% BSA) to each well. The MSD plates were washed 4× with TBST, and 50 μl lysates were transferred to MSD plate and place on plate shaker shake at 4 degrees O/N, light shaking (speed 3.5). The plate was washed 4× with TBST.
25 μl of Ab detection solution was added to each well. The plate was sealed and incubated 1 hr RT, light shaking (speed 3.5). The plate was washed 4 times with TBST. 150 μl of Read Buffer was added (5 mls 4×MSD Read Buffer+15 mls water). Finally the plate was read immediately on the MSD plate reader.

[3] = inhibition of phospo-PDK1 in vitro
[4] = inhibition of P308 Akt in PC-3 cells, MSD
[5] = inhibition of P308 Akt in PC-3 cells using MSD

Sequence of PDK1 (O15530 51-359): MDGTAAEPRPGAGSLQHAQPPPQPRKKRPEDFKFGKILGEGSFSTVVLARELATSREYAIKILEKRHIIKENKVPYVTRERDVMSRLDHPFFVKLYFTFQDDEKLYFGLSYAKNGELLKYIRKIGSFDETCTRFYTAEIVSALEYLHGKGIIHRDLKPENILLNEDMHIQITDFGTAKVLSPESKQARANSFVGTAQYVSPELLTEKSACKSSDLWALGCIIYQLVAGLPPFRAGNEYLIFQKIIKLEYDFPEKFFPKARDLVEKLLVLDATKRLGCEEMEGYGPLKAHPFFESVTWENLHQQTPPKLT

IC50 [1, 3]	EC50 [2, 4]	IC50 ([1]; inhibition of PDK1 in vitro)	EC50 [2, 5]	EC50 ([2]; PC-3, 2 h, inhibition of P308 Akt in PC-3 cells, MSD)	Compound
< 0.1 µM	1 to 10 µM				C[C@H](NC(=O)c1cn(C)nc1NCc1ccc(-c2ccc3ncnc(N)c3c2)s1)c1ccc(F)cc1 [Example 11.5, 3-({[5-(4-aminoquinazolin-6-yl)thiophen-2-yl]methyl}amino)-N-[(1S)-1-(4-fluorophenyl)ethyl]-1-methyl-1H-pyrazole-4-carboxamide]
		> 5 µM	1 to 10 µM		C[C@H](NC(=O)c1cc(C#N)cnc1NCc1ccc(-c2c[nH]nc2N)cc1)c1ccc(F)cc1 [Example 142, (S)-2-(4-(3-amino-1H-pyrazol-4-yl)benzylamino)-5-cyano-N-(1-(4-fluorophenyl)ethyl) nicotinamide]
< 0.1 µM	> 10 µM				CN(C)CCCNS(=O)(=O)c1cnc(NCc2ccc(-c3ccc4ncnc(N)c4c3)s2)c(C(=O)NCc2ccc(F)c(F)c2)c1 [Example 8.6.14, 2-(((5-(4-aminoquinazolin-6-yl)thiophen-2-yl)methyl)amino)-N-(3,4-difluorobenzyl)-5-(N-(3-(dimethylamino)propyl)sulfamoyl) nicotinamide]
		> 5 µM	> 10 µM		CNC(=O)c1cc(S(=O)(=O)NCCN)cnc1NCc1ccc(-c2ccc3ncnc(N)c3c2)s1 [Example 344]
< 0.1 µM	< 1 µM				Cn1cnc2cnc3ccc(-c4ccc(CNc5ncc(C#N)nc5C(=O)NCc5ccc(F)c(F)c5)s4)cc3c21 [Example 3.81, 6-cyano-N-(3,4-difluorobenzyl)-3-(((5-(1-methyl-1H-imidazo [4,5-c]quinolin-8-yl)thiophen-2-yl)methyl)amino)pyrazine-2-carboxamide (TFA salt)]
> 5 µM	> 10 µM				Cn1ccc(Nc2ncnc3ccc(-c4ccc(CNc5ncccc5C(=O)NCc5ccc(F)c(F)c5)s4)cc23)n1 [Example 2.34, N-(3,4-difluorobenzyl)-2-(((5-(4-(1-methyl-1H-pyrazol-3-ylamino)quinazolin-6-yl)thiophen-2-yl)methyl)amino) nicotinamide]
		< 0.1 µM	< 1 µM		N#CCc1n[nH]c2ncc(-c3ccc(CNc4ncc(C(F)(F)F)cc4C(=O)Nc4ccc(F)cc4)cc3)cc12 [Example 157, 2-(4-(3-(cyanomethyl)-1H-pyrazolo[3,4-b]pyridin-5-yl)benzylamino)-N-(4-fluorophenyl)-5-(trifluoro-methyl)nicotinamide]
		< 0.1 µM	< 1 µM		C[C@H](NC(=O)c1cc(C#N)cnc1NCc1ccc(-c2cnc(N)c(CCCO)n2)cc1)c1ccc(F)cc1 [Example 91, 2-{4-[5-Amino-6-(3-hydroxy-propyl)-pyrazin-2-yl]-benzyl-amino}-5-cyano-N-[(S)-1-(4-fluoro-phenyl)-ethyl]-nicotinamide]
1 to 5 µM				1 to 10 µM	O=C(NCc1ccc(F)c(F)c1)c1cc(C(F)(F)F)cnc1N[C@@H](COc1ccc2[nH]c(=O)[nH]c2c1)c1ccccc1 [Example 16.4, (R)-N-(3,4-difluorobenzyl)-2-(2-(2-oxo-2,3-dihydro-1H-benzo[d]imidazol-5-yloxy)-1-phenylethylamino)-5-(trifluoromethyl)nicotinamide]
> 5 µM					O=C(NC1CC1)c1cccnc1NCc1cccc(-c2c[nH]c3ncccc23)c1 [Example 1.12, N-cyclopropyl-2-{[3-(1H-pyrrolo [2,3-b]pyridin-3-yl)benzyl]amino} pyridine-3-carboxamide]
0.1 to 1 µM					C[C@H](NC(=O)c1cccnc1NCc1ccc(-c2ccc3ncncc3c2)s1)c1ccc(F)cc1 [Example 2.11, (S)-N-(1-(4-fluorophenyl)ethyl)-2-(((5-(quinazolin-6-yl)thiophen-2-yl)methyl)amino)nicotinamide]
> 5 µM					Nc1ncnc2ccc(-c3ccc(CNc4ncccc4S(=O)(=O)NCc4ccc(F)c(F)c4)s3)cc12 [Example 20.2, 2-(((5-(4-aminoquinazolin-6-yl)thiophen-2-yl)methyl)amino)-N-(3,4-difluorobenzyl)pyridine-3-sulfonamide]

From US10030016B2 (Sunesis Pharmaceuticals, Inc., priority 2009, dated 2018)
